Experimental data: ChEMBL document CHEMBL6114982, “Structural optimization and characterization of highly potent and selective STAT3 inhibitors for the treatment of triple negative breast cancer” (Eur J Med Chem, 2025)
Activity calls are given as the source filed them. The calls are words filed in the database; no cut-off is given here.

Tests used:
BT-549 [1] = experiment: Effect on STAT5 phosphorylation level in human BT-549 cells at 0.05 to 0.5 uM measured after 48 hrs by Western blot analysis; type: functional, cell-based; conditions: dose 0.05-0.5 µM
MDA-MB-231 [2] = experiment: Downregulation of Bcl-2 level in human MDA-MB-231 cells measured after 48 hrs by Western blot analysis; type: functional, cell-based; conditions: dose 0.05-0.5 µM
MDA-MB-231 [3] = experiment: Downregulation of CD44 expression in human MDA-MB-231 cells by Western blot analysis; type: functional, cell-based
MDA-MB-231 [4] = experiment: Antiproliferative activity against human MDA-MB-231 cells assessed as inhibition of cell growth incubated for 72 hrs by SRB method; type: functional, cell-based; conditions: MDA-MB-231, 72 h
MDA-MB-231 [5] = experiment: Induction of apoptosis in human MDA-MB-231 cells assessed as late apoptotic at 0.1 uM incubated for 48 hrs by Annexin V and PI staining based flow cytometry analysis (reference value: 2.71%); type: functional
MDA-MB-231 [6] = experiment: Antitumor activity against human MDA-MB-231 cells xenografted in female nude BALB/c mouse model assessed as tumor growth inhibition at 20 mg/kg, ip administered every other day for 30 days relative to control; type: functional; conditions: MDA-MB-231, 720 h, time 30 day, read-out: TGI
[7] = Toxicity in female BALB/c nude mouse assessed as effect on heart at 10 to 20 mg/kg, iv measured after 30 days by H and E staining based analysis; type: organism-based; conditions: in vivo, 720 h, dose 10-20 mg/kg, time 30 day
[8] = target: T1, Signal transducer and activator of transcription 3 (Homo sapiens, UniProt P40763); experiment: Inhibition of STAT3 phosphorylation in human MDA-MB-231 cells assessed as downregulation of TAGLN expression level; type: cell-based
[9] = target: T1, Signal transducer and activator of transcription 3; experiment: Inhibition of STAT3 in human MDA-MB-231 cells assessed as upregulation of NDUFAB1 level; type: cell-based
[10] = target: T1, Signal transducer and activator of transcription 3; experiment: Competitive binding affinity to STAT3 SH2 domain (unknown origin) expressed in HEK293T cells assessed as decrease in fluorescence intensity by dual luciferase analysis; type: cell-based; conditions: dose 0.05-0.5 µM
MDA-MB-231 [11] = experiment: Effect on STAT3 expression in human MDA-MB-231 cells at 0.1 microM measured after 8 to 48 hrs by Western blot analysis; type: functional, cell-based; conditions: time 8-48 hrs
MDA-MB-231 [12] = experiment: Downregulation of MMP2 expression level in human MDA-MB-231 cells by Western blot analysis; type: functional, cell-based
BT-549 [13] = experiment: Inhibition colony formation in human BT-549 cells harbouring STAT3 siRNA at 0.1 uM after 14 days by crystal violet staining based analysis; type: functional, cell-based; conditions: time 14.0 day
[14] = target: T1, Signal transducer and activator of transcription 3; experiment: Inhibition of STAT3 phosphorylation in human MDA-MB-231 cells assessed as downregulation of F5 level; type: cell-based
[15] = target: T1, Signal transducer and activator of transcription 3; experiment: Inhibition of STAT3 phosphorylation in human MDA-MB-231 cells assessed as downregulation of KRT10 expression level; type: cell-based
MDA-MB-231 [16] = experiment: Induction of apoptosis in human MDA-MB-231 cells assessed as late apoptotic at 0.5 uM incubated for 48 hrs by Annexin V and PI staining based flow cytometry analysis (reference value: 2.71%); type: functional
[17] = target: T1, Signal transducer and activator of transcription 3; experiment: Inhibition of STAT3 phosphorylation at Tyr705 residue at Tyr705 residue in human MDA-MB-231 cells measured after 8 to 48 hrs by Western blot analysis; type: cell-based; conditions: dose 0.1 µM, time 8-48 hrs
[18] = Toxicity in female BALB/c nude mouse assessed as effect on kidney at 10 to 20 mg/kg, iv measured after 30 days by H and E staining based analysis; type: organism-based; conditions: in vivo, 720 h, dose 10-20 mg/kg, time 30 day
MDA-MB-231 [19] = experiment: Downregulation of cyclin D1 level in human MDA-MB-231 cells measured after 48 hrs by Western blot analysis; type: functional, cell-based; conditions: dose 0.05-0.5 µM
BT-549 [20] = experiment: Downregulation of Bcl-2 level in human BT-549 cells measured after 48 hrs by Western blot analysis; type: functional, cell-based; conditions: dose 0.05-0.5 µM
[21] = target: Tyrosine-protein kinase JAK2 (Homo sapiens) (UniProt O60674); experiment: Inhibition of JAK2 (unknown origin) at upto 10 uM
BT-549 [22] = experiment: Downregulation of cyclin D1 level in human BT-549 cells measured after 48 hrs by Western blot analysis; type: functional, cell-based; conditions: dose 0.05-0.5 µM
[23] = target: T1, Signal transducer and activator of transcription 3; experiment: Inhibition of STAT3 in human MDA-MB-231 cells assessed as downregulation of CCNB1 level; type: cell-based
[24] = Toxicity in female BALB/c nude mouse assessed as change in body weight at 10 to 20 mg/kg, iv measured for 30 days; type: organism-based; conditions: in vivo, 720 h, dose 10-20 mg/kg, time 30 day
MDA-MB-231 [25] = experiment: Inhibition colony formation in human MDA-MB-231 cells harbouring STAT3 siRNA at 0.1 uM after 14 days by crystal violet staining based analysis; type: functional, cell-based; conditions: time 14.0 day
[26] = target: T1, Signal transducer and activator of transcription 3; experiment: Inhibition of STAT3 phosphorylation in human MDA-MB-231 cells assessed as upregulation of UBE2S expression level; type: cell-based
[27] = target: T1, Signal transducer and activator of transcription 3; experiment: Inhibition of STAT3 nuclear translocation in human BT-549 cells assessed as decrease in p-STAT3 at Tyr705 residue at 0.05 to 0.5 uM preincubated for 48 hrs followed by IL-6 addition and measured after 2 hrs by Immunofluorescence analysis; type: cell-based; conditions: dose 0.05-0.5 µM, time 50.0 hrs
MDA-MB-231 [28] = experiment: Effect on Akt phosphorylation level in human MDA-MB-231 cells at 0.05 to 0.5 uM measured after 48 hrs by Western blot analysis; type: functional, cell-based; conditions: dose 0.05-0.5 µM
[29] = Toxicity in female BALB/c nude mouse assessed as drug tolerance at 10 to 20 mg/kg, iv measured after 30 days; type: organism-based; conditions: in vivo, 720 h, dose 10-20 mg/kg, time 30 day
[30] = Toxicity in female BALB/c nude mouse assessed as effect on liver at 10 to 20 mg/kg, iv measured after 30 days by H and E staining based analysis; type: organism-based; conditions: in vivo, 720 h, dose 10-20 mg/kg, time 30 day
MDA-MB-231 [31] = experiment: Effect on STAT5 phosphorylation level in human MDA-MB-231 cells at 0.05 to 0.5 uM measured after 48 hrs by Western blot analysis; type: functional, cell-based; conditions: dose 0.05-0.5 µM
MDA-MB-231 [32] = experiment: Induction of apoptosis in human MDA-MB-231 cells incubated for 48 hrs by Annexin V and PI staining based flow cytometry analysis; type: functional, cell-based; conditions: dose 0.05-0.5 µM
Homo sapiens = species on record: Homo sapiens; experiment: Inhibition of SRC phosphorylation (unknown origin) at […] residue at upto 10 uM
MDA-MB-231 [33] = experiment: Induction of apoptosis in human MDA-MB-231 cells assessed as late apoptotic at 0.05 uM incubated for 48 hrs by Annexin V and PI staining based flow cytometry analysis (reference value: 2.71%); type: functional
BT-549 [34] = experiment: Inhibition of cell migration in human BT-549 cells assessed as reduction in wound closure proportion at 0.05 to 0.5 uM incubated for 24 hrs by inverted microscopic analysis; type: functional, cell-based; conditions: dose 0.05-0.5 µM
[35] = target: T1, Signal transducer and activator of transcription 3; experiment: Inhibition of STAT3 phosphorylation at Tyr705 residue in human MDA-MB-231 cells at 0.1 uM by Western blot analysis; type: cell-based; conditions: time 8-48 hrs
MDA-MB-231 [36] = experiment: Downregulation of STAT3 phosphorylation level in human MDA-MB-231 cells preincubated for 48 hrs followed by IL-6 addition and measured after 2 hrs by Western blot analysis; type: functional, cell-based; conditions: dose 0.05-0.5 µM, time 50.0 hrs
[37] = target: Tyrosine-protein kinase JAK1 (Homo sapiens) (UniProt P23458); experiment: Inhibition of JAK1 (unknown origin) at upto 10 uM
BT-549 [38] = experiment: Inhibition of colony formation in human BT-549 cells measured after 14 days by crystal violet staining based analysis; type: functional, cell-based; conditions: dose 0.1-0.5 µM, time 14.0 day

T1 sequence (P40763 whole entry): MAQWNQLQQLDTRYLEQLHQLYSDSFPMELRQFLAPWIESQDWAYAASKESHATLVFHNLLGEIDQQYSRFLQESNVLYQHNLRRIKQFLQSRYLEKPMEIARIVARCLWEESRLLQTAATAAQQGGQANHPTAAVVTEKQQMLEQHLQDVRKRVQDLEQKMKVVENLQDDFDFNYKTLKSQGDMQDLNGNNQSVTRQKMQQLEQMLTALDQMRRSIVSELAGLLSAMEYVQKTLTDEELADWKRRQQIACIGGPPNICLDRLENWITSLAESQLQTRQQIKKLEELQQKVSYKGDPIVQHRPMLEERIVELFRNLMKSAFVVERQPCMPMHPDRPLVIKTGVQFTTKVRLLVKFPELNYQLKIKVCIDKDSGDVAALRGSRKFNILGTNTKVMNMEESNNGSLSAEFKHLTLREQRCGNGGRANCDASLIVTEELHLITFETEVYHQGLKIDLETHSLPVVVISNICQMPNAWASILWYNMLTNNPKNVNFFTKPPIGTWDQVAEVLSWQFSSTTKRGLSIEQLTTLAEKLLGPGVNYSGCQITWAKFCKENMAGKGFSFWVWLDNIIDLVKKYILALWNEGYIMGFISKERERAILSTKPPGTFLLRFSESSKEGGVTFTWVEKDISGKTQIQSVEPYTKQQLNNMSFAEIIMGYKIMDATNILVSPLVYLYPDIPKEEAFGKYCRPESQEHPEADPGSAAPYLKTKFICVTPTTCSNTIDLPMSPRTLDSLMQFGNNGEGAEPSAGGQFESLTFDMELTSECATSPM
Chain of Tyrosine-protein kinase JAK2 (Homo sapiens) (O60674 whole entry): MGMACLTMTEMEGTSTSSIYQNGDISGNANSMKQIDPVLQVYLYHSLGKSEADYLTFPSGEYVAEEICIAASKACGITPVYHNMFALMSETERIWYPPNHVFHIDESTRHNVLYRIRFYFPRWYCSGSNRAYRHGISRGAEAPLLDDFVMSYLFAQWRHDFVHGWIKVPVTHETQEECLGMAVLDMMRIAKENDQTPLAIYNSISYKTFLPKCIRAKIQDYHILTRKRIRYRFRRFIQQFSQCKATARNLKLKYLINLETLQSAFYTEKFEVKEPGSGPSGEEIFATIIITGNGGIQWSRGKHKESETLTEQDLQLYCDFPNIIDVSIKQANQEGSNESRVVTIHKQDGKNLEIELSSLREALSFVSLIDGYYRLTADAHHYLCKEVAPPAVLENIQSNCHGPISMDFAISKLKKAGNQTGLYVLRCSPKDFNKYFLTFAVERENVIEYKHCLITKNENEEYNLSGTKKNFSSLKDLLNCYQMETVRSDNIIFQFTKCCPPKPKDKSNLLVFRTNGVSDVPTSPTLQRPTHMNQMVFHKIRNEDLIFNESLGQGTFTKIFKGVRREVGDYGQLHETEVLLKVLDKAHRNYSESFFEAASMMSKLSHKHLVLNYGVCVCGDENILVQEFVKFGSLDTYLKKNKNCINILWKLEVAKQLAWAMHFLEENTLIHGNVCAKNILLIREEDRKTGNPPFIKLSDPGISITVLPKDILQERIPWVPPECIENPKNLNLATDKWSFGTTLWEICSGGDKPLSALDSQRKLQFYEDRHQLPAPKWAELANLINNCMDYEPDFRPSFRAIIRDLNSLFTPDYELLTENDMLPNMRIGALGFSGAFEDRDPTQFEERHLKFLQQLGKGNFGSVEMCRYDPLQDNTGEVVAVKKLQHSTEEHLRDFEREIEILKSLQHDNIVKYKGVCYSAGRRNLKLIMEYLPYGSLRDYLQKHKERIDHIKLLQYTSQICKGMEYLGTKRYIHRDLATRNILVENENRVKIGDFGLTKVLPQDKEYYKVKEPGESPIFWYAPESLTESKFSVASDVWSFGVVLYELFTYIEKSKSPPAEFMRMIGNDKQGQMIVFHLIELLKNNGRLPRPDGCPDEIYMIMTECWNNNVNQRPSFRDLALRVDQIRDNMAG
Chain of Tyrosine-protein kinase JAK1 (Homo sapiens) (P23458 whole entry): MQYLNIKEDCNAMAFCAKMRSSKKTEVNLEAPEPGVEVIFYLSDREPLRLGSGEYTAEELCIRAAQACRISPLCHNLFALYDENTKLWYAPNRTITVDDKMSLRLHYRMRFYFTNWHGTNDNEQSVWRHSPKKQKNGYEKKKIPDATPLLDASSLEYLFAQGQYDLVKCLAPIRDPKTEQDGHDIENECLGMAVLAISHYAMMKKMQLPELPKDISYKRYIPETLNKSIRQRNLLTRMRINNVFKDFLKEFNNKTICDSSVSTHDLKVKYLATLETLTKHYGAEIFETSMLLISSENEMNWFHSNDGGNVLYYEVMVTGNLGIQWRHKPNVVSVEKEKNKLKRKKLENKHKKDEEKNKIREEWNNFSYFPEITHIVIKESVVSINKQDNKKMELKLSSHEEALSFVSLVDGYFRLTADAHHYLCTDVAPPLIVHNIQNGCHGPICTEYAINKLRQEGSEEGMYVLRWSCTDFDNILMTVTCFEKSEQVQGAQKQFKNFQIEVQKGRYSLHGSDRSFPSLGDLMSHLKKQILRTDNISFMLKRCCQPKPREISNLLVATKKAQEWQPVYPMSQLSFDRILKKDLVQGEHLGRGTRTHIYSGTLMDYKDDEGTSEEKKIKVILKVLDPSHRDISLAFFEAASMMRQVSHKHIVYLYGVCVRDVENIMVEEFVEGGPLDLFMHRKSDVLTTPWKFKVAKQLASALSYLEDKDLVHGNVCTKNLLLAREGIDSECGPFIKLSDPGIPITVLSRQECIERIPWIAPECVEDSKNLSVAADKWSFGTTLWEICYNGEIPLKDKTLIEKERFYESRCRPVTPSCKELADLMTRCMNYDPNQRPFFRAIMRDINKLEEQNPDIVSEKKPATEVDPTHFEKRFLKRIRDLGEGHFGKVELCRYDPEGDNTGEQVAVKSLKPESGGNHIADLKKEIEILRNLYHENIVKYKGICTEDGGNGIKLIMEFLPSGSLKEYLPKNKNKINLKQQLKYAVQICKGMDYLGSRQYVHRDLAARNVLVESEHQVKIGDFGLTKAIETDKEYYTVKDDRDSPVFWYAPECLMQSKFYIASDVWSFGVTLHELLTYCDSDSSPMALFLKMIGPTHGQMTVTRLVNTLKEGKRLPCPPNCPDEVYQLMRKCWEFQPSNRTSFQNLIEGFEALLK

- IC50 (MDA-MB-231 [4]): 30 nM
- inhibition [8]: Active
- inhibition [9]: Active
- Activity [10]: Dose-dependent-effect
- inhibition [14]: Active
- inhibition [15]: Active
- inhibition [17]: Dose-dependent-effect
- inhibition [23]: Active
- inhibition [26]: Active
- inhibition [27]: Active
- inhibition [35]: Time-dependent-effect
SMILES: COc1cccc(C(=O)Nc2sc3c(c2C#N)CCN(C(=O)Nc2ccccc2OC)C3)c1
- Activity (BT-549 [1]): inactive
- Activity (MDA-MB-231 [2]): Dose-dependent-effect
- Activity (MDA-MB-231 [3]): Active
- Activity (MDA-MB-231 [5]): 16.08%
- inhibition in vivo at 20 mg/kg (MDA-MB-231 [6]): 58%
- Activity [7]: Non-toxic
- Activity (MDA-MB-231 [11]): Active; Compound Showed Little Impact On Stat3 Expression
- Activity (MDA-MB-231 [12]): Active
- inhibition (BT-549 [13]): inactive
- Activity (MDA-MB-231 [16]): 19.18%
- Activity [18]: Non-toxic
- Activity (MDA-MB-231 [19]): Dose-dependent-effect
- Activity (BT-549 [20]): Dose-dependent-effect
- inhibition [21]: Active; Compound Showed Little Inhibitory Effect
- Activity (BT-549 [22]): Dose-dependent-effect
- Activity [24]: Toxic
- inhibition (MDA-MB-231 [25]): inactive
- Activity (MDA-MB-231 [28]): inactive
- Activity [29]: Non-toxic
- Activity [30]: Non-toxic
- Activity (MDA-MB-231 [31]): inactive
- Activity (MDA-MB-231 [32]): Dose-dependent-effect
- inhibition (Homo sapiens): Active; Compound Showed Little Inhibitory Effect
- Activity (MDA-MB-231 [33]): 12.78%
- inhibition (BT-549 [34]): Active
- Activity (MDA-MB-231 [36]): Dose-dependent-effect
- inhibition [37]: Active; Compound Showed Little Inhibitory Effect
- inhibition (BT-549 [38]): Dose-dependent-effect
